Experimental data from patent US11331299B2, “Medicinal use of serrulatane diterpenes” (The University of Sydney, priority 2016, dated 2022).

Experiments:
EHMT1 (h) = target: T1, EHMT1 (h) (Homo sapiens, UniProt Q9H9B1); assay: Epigenetic enzyme assay, Methyltransferases (MTs); type: biochemical; details: for inhibition at 10 µM: read-out: % Inhibition of Control Values
T1 sequence (Q9H9B1 1-1298): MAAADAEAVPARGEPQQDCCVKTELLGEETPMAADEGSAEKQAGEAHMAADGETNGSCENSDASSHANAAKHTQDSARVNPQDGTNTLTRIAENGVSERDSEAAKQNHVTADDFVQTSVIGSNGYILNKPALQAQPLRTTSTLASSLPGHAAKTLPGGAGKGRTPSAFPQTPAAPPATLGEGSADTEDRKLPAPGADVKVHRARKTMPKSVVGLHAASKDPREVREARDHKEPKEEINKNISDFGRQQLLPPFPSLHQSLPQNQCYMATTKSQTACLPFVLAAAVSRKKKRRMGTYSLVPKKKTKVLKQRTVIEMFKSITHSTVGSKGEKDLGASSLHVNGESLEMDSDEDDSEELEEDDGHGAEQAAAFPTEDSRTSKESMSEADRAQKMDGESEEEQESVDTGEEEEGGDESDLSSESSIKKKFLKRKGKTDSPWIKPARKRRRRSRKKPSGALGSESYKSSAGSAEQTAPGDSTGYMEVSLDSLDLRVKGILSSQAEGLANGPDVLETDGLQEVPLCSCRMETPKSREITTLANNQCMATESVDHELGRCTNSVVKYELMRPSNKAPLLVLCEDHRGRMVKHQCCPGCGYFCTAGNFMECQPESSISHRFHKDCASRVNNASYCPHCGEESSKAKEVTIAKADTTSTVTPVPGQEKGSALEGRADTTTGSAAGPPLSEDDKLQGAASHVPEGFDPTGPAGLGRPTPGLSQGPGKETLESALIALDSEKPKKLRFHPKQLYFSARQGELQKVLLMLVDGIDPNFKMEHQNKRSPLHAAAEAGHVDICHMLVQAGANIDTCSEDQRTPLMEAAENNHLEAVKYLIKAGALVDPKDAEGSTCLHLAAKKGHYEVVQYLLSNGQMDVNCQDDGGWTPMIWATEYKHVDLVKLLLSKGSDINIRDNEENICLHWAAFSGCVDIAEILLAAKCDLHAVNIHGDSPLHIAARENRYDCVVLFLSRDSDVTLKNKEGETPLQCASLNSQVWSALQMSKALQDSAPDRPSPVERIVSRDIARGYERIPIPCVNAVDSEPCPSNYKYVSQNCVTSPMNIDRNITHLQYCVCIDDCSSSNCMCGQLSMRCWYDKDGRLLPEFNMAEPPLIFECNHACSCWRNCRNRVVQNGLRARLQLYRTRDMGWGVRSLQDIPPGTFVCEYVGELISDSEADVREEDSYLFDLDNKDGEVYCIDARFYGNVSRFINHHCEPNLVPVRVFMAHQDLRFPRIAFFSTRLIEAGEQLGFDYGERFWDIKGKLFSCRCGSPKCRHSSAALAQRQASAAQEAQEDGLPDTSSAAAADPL

BAP1 (h) = target: T2, BAP1 (h) (Homo sapiens, UniProt Q92560); assay: Epigenetic enzyme assay, Ubiquitin modifying enzymes; type: biochemical; details: 10 μM; read-out: % Inhibition of Control Values
T2 sequence (Q92560 1-729): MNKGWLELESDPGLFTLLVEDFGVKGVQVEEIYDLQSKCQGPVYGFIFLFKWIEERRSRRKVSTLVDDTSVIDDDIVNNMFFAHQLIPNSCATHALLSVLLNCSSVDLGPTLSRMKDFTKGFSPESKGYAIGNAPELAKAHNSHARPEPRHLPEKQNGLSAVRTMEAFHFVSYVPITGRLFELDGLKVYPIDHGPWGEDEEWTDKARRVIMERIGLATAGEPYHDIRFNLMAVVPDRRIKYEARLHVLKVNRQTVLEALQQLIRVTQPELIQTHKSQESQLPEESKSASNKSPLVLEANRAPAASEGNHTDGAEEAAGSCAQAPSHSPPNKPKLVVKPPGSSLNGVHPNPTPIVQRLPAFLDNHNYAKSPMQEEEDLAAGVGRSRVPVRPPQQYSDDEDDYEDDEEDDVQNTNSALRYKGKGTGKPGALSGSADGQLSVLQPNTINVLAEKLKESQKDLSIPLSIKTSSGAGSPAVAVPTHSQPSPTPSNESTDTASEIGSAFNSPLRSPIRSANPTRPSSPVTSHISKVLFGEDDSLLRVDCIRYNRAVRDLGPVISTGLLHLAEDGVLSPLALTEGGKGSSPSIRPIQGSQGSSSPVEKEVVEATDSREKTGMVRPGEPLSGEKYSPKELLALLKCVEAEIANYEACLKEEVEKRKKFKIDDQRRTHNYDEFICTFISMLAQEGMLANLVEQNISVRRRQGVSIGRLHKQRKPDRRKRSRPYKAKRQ

EP300 (h) bromodomain = target: T3, EP300 (h) bromodomain (Homo sapiens, UniProt Q09472); assay: Epigenetic binding assay, Bromodomain; details: for inhibition at 10 µM: read-out: % Inhibition of Control Specific Binding
T3 construct: Bromodomain
T3 sequence (Q09472 1049-1156 limits assumed): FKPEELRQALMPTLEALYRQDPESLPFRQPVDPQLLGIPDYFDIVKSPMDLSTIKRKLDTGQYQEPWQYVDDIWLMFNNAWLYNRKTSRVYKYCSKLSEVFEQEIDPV

PRMT7 (h) = target: T4, PRMT7 (h) (Homo sapiens, UniProt Q9NVM4); assay: Epigenetic enzyme assay, Methyltransferases (MTs); type: biochemical; details: read-out: % Inhibition of Control Values
T4 sequence (Q9NVM4 1-692): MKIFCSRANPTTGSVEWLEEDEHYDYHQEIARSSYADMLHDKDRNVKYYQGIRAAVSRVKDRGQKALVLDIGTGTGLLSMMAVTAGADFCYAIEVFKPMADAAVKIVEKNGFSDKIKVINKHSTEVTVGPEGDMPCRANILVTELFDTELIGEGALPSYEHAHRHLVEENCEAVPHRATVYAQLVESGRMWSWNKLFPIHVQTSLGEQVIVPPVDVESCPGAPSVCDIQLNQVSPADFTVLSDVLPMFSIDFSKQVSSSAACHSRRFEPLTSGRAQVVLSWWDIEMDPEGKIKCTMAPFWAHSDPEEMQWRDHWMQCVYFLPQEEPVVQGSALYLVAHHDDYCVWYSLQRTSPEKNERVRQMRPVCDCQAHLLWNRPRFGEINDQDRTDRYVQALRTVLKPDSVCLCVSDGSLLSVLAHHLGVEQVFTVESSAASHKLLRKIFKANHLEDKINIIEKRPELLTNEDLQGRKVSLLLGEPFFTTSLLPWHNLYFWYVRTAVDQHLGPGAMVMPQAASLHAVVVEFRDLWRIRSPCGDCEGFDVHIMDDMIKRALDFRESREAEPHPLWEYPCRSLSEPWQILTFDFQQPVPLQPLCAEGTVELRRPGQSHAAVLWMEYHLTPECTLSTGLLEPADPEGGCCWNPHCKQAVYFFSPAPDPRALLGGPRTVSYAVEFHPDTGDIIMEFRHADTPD

## CC(C)=CCC[C@H](CO)[C@@H]1CC[C@@H](C)c2c1cc(C)c(O)c2O [Compound 1, 7,8,18-trihydroxyserrulat-14-ene]
EHMT1 (h)
  inhibition at 10 µM: 13%
BAP1 (h)
  inhibition at 10 µM: 1%
EP300 (h) bromodomain; 10 μM
  % Inhibition of Control Specific Binding: significant inhibitory activity
  inhibition at 10 µM: 89%
EP300 (h) bromodomain; Table 9, inhibition/concentration-response curve
  IC50: 4500 nM
PRMT7 (h)
  inhibition at 10 µM: -2%

## CC(C)=CCC[C@@H]1C(O)Oc2c(C)cc(O)c3c2[C@H]1CC[C@H]3C (stereo partly drawn) [Compound 2, 5,18-epoxyserrulat-14-en-8,18-diol]
EHMT1 (h)
  inhibition at 10 µM: 9%
BAP1 (h)
  inhibition at 10 µM: -9%
EP300 (h) bromodomain; 10 μM
  inhibition at 10 µM: 37%
PRMT7 (h)
  inhibition at 10 µM: 0%

## CC(C)=CCC[C@@H]1COc2c(C)cc(O)c3c2[C@H]1CC[C@H]3C [Compound 3, 5,18-epoxy-8-hydroxyserrulat-14-ene]
EHMT1 (h)
  inhibition at 10 µM: 63%
BAP1 (h)
  inhibition at 10 µM: 24%
EP300 (h) bromodomain; 10 μM
  inhibition at 10 µM: 40%
PRMT7 (h)
  inhibition at 10 µM: -36%

## Nc1ncnc2c1ncn2[C@@H]1O[C@H](CSCC[C@H](N)C(=O)O)[C@@H](O)[C@H]1O [SAH]
EHMT1 (h); read-out: Reference IC50
  IC50: 180 nM
